Source: ChEMBL document CHEMBL1201862, “PubChem BioAssay data set” (2004)
Activity calls are given as the source filed them. For most assays here, no stated cut-off is given here; in the data, actives have a measured EC50 and inactives only a lower limit.

What was measured:
[1] = target: T1, Replicative DNA helicase DnaB (Mycobacterium tuberculosis, UniProt P9WMR3); test: DnaB intein splicing inhibitors, dose response, biochemical, cell-free fluorescence (AID 449749); format: functional
T1 sequence (P9WMR3 whole entry): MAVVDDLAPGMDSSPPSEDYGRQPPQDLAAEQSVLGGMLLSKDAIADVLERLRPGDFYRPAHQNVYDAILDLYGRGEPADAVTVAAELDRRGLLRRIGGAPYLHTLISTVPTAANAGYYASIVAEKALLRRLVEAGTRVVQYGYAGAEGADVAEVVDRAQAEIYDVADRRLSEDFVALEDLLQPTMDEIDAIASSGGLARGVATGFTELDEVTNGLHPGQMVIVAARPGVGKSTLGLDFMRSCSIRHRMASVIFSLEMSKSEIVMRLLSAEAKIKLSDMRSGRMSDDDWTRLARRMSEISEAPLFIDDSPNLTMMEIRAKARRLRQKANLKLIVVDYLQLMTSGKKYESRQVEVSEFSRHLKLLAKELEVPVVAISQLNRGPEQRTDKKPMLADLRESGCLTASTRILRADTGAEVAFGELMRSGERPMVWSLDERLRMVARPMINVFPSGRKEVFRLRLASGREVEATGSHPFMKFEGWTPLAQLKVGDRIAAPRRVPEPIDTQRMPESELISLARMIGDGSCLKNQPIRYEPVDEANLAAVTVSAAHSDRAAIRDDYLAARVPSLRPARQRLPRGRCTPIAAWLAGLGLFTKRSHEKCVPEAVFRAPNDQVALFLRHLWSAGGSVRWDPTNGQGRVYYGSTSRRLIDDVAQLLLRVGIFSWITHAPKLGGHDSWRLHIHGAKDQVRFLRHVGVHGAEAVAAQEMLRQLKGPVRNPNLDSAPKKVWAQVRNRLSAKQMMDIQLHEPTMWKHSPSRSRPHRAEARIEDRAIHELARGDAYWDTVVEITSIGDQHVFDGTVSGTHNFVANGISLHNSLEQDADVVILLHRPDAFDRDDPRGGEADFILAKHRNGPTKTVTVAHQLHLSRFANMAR

Protein RecA = target: T2, Protein RecA (Mycobacterium tuberculosis, UniProt P9WHJ3); test: Fluorescence Cell-Free Homogeneous Dose Retest to Identify Inhibitors of RecA-Intein Splicing Activity. [Related pubchem assays (depositor defined):AID2097, AID2223, AID489010, AID492950]; format: functional
T2 sequence (P9WHJ3 whole entry): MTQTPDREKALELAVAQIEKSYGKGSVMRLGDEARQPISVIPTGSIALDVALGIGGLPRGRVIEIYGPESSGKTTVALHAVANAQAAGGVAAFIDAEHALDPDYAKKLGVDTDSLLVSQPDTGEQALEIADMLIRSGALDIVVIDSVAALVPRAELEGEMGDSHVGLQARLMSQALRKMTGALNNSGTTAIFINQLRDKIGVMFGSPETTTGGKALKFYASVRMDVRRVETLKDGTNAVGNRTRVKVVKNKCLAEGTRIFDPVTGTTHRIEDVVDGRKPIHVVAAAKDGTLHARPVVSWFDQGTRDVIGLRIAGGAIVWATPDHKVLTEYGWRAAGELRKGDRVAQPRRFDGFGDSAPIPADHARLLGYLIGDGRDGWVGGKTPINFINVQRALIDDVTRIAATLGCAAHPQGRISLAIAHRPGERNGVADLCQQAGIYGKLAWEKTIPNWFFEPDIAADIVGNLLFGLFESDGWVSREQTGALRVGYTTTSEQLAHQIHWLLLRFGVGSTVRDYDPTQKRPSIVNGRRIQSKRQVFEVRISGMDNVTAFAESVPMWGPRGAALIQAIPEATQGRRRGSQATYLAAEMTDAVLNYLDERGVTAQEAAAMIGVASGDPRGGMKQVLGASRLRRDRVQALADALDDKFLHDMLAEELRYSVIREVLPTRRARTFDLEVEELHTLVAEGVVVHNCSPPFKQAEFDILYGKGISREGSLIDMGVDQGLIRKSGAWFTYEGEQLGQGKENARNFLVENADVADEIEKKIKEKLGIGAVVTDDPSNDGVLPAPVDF

[2] = target: Luciferin 4-monooxygenase (Photinus pyralis, UniProt P08659); test: firefly luciferase enzyme inhibitors, dose response, biochemical, luminescence (AID 1891)
Luciferin 4-monooxygenase, sequence (P08659 whole entry): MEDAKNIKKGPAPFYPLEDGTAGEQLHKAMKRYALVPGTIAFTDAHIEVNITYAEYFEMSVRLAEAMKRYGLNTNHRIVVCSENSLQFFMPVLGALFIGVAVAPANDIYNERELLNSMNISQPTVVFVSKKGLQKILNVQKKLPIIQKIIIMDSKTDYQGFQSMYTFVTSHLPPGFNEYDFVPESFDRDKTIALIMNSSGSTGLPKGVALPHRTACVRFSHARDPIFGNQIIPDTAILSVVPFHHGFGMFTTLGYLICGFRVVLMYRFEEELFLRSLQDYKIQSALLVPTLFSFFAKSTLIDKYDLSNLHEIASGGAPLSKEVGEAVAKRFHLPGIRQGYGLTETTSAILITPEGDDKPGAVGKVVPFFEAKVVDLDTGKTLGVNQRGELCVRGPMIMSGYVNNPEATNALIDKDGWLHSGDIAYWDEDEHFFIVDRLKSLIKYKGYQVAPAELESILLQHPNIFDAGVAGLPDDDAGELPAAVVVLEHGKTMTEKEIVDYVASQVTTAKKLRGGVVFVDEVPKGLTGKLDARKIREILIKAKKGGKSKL

[3] = Luminescence Cell-Based Dose Confirmation HTS to Identify Inhibitors of Platelet Dense Granule Release. [Related pubchem assays: 1663 (Primary HTS), 1678 (Summary of Project)]; format: functional
cells = format: functional
[4] = NIH-3T3 fibroblast cytotoxicity, dose response, cytotoxicity control, cell-based, fluorescence, Alamar Blue, secondary assay (AID 2327); format: functional;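 further: NIH-3T3 mouse fibroblasts cultured with fluconazole at 8 µg/mL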
[5] = C. albicans growth with fluconazole, confirmation, fluorescence, retest (AID 2467); format: functional, cell-based
Large T antigen = Large T antigen (Simian virus 40, UniProt P03070); format: functional, Betapolyomavirus macacae;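 further: Confirmatory-stage PubChem screen for compounds that inhibit SV40 T antigen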
Large T antigen, sequence (P03070 whole entry): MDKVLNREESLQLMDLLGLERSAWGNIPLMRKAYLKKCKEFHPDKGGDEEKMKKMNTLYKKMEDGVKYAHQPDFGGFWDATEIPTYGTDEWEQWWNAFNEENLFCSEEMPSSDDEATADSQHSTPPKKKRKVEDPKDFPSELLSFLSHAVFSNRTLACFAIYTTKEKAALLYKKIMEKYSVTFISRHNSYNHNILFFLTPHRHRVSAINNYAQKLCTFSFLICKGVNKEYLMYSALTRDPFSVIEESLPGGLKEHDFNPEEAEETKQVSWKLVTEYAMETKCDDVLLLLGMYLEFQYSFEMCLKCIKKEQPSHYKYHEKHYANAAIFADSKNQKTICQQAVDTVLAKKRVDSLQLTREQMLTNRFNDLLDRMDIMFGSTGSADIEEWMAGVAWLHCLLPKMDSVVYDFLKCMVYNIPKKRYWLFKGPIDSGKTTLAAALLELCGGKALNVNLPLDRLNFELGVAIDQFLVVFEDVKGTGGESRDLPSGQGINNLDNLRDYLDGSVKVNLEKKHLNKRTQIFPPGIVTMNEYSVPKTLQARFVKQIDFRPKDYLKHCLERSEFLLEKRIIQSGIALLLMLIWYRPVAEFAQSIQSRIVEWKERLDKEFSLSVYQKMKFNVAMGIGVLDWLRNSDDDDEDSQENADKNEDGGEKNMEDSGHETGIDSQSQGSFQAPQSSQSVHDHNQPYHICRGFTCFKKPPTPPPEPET

[6] = target: T3, Rac GTPase-activating protein 1 (Homo sapiens, UniProt Q9H0H5); test: MgcRacGAP GTPase-activating activity inhibitors, confirmation, biochemical, ADP Hunter fluorescence, primary and confirmatory (AID 624330); format: functional
T3 sequence (Q9H0H5 whole entry): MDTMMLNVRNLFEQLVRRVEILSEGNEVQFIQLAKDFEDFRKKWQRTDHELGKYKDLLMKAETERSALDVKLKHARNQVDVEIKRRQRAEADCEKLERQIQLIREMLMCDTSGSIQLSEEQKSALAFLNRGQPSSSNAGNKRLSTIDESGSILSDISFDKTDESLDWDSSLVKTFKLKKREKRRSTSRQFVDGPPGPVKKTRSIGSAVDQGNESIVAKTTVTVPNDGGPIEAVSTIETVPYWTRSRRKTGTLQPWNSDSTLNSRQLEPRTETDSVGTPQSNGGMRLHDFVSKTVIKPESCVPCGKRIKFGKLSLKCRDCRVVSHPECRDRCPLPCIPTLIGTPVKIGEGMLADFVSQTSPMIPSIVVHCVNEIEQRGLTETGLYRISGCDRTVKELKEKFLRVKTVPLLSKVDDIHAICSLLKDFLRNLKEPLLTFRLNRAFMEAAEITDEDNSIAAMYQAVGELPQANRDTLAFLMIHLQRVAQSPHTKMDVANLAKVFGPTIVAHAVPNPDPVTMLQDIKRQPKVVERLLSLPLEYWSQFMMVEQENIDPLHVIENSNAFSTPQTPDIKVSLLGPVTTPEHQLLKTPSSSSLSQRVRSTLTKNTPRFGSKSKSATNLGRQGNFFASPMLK

[7] = inhibitors of intracellular T. cruzi replication, confirmation, NIH3T3 host cells, beta-gal luminescence (AID 2044); format: functional, cell-based;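 further: intracellular parasites grown in NIH/3T3 mouse fibroblasts as host cells; luminescent beta-galactosidase reporter signal from transgenic T. cruzi replicating inside host cells; inhibitors lower the luminescence signal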
[8] = cytotoxicity toward NIH3T3 fibroblasts, dose response, counter-screen, cell-based, ATP luminescence, mouse fibroblasts (AID 2010); format: functional;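 further: cells exposed to compound for about 90 hours before reading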
[9] = Luminescence Cell-Based Dose Retest to Confirm Inhibitors of Cancer Stem Cells. [Related pubchem assays (depositor defined):AID2717, AID2721]; format: functional, Homo sapiens; conditions: Homo sapiens
[10] = target: T4, Microphthalmia-associated transcription factor (Homo sapiens, UniProt O75030); test: TRPM1 promoter luciferase signal decrease, dose response, MITF inhibitor project, cell-based, SK-MEL-5, cherry-picked, set 3 (AID 493073); format: functional
T4 sequence (O75030 whole entry): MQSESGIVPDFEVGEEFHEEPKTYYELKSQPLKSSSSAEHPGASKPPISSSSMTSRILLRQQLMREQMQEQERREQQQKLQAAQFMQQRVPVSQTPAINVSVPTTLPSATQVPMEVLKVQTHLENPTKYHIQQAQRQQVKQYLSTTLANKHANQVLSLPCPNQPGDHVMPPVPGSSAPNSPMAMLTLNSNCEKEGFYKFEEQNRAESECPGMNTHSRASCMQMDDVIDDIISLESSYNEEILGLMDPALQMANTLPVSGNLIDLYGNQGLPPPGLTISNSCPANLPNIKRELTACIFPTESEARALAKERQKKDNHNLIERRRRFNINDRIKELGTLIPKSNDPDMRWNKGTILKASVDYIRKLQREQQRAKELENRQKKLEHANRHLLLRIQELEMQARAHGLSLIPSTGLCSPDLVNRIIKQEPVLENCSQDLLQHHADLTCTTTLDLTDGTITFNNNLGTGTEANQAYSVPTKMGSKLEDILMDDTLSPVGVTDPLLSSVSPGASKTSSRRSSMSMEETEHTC

[11] = inhibitors of HIV Env-driven cell fusion, dose response, cherry-pick (AID 652057); format: functional, cell-based
[12] = Luminescence Cell-Based Dose Response HTS to Identify Inhibitors of 5'UTR Stem-Loop Driven Prion Protein mRNA Translation in H4 Neuroglioblastoma Cells. [Related pubchem assays: 1827 (Project Summary), 1813 (Primary HTS)]; format: functional
[13] = inhibitors of firefly luciferase expression or activity, dose response, H4 neuroglioma cells, luminescence (AID 1990); format: functional, cell-based
[14] = inhibitors of SNCA 5'UTR-driven reporter translation, confirmation, H4 neuroglioma cells, luminescence (AID 1988); format: functional, cell-based

## COCc1n[nH]c2c1C(c1ccccc1F)C(C#N)=C(N)O2 (stereo not drawn)
[1]
  AC50: 36.4 µM (active)
Protein RecA
  EC50: 6.49 µM (active)

## CCN1CCN(Cc2nc3c(c(=O)[nH]c(=O)n3C)n2Cc2ccccc2Cl)CC1
[2]
  EC50: > 112 µM (not active)
[3]
  EC50: 18.6 µM (active)

## COc1ccc(NC(=O)c2cnn(-c3ccccc3)c2C)cc1
[2]
  EC50: 16.6 µM (active)
[3]
  EC50: 6.03 µM (active)

## COc1cnn(C2CCCCC2)c(=O)c1O
cells
  IC50: 33.5 µM (active)

## O=C(O)/C=C\C(=O)Nc1ccc(Oc2ccc(Br)cc2)cc1
[1]
  AC50: 14.6 µM (active)
Protein RecA
  EC50: 11 µM (active)

## COc1ccccc1NC(=O)c1cc2n(n1)C(C(F)(F)F)CC(c1ccc3c(c1)OCO3)N2 (stereo not drawn)
[2]
  EC50: > 112 µM (not active)
[3]
  EC50: > 112 µM (not active)

## CC1CCCCN1S(=O)(=O)c1ccc(NC(=O)c2cccc(-n3cnnn3)c2)cc1 (stereo not drawn)
[4]
  EC50: > 150 µM (inactive)

## Cc1ccc(S(=O)(=O)CC(C)N2CCOCC2)c(S(=O)(=O)CC(C)N2CCOCC2)c1 (stereo not drawn)
[5]
  EC50: 6.26 µM (active)
[4]
  EC50: > 160 µM (inactive)

## Cc1ccc(OC(S)=Nc2ccc(O)cc2)cc1
Large T antigen
  IC50: 13 µM (active)
[6]
  IC50: 31.6 µM (active)

## CCCCOC(=O)c1ccc(OC(=O)N2CCOCC2)cc1
[2]
  EC50: > 112 µM (not active)
[3]
  EC50: > 112 µM (not active)

## COc1cc2c(cc1OC)-c1cc(Nc3cccc(C)c3)nc(=O)n1CC2
[2]
  EC50: > 112 µM (not active)
[3]
  EC50: 4.03 µM (active)

## CCOC(=O)C1CCN(C(c2ccccn2)c2c(C)[nH]c3ccccc23)CC1 (stereo not drawn)
[2]
  EC50: > 112 µM (not active)
[3]
  EC50: 16.5 µM (active)

## COC(=O)c1ccc(NC(=O)C(=O)c2cccn2C)cc1
[2]
  EC50: 1.74 µM (active)
[3]
  EC50: 2.39 µM (active)

## O=C1/C(=C\c2ccc(O)c(O)c2)N=C2CCCCCN12
Large T antigen
  IC50: 6.68 µM (active)
[6]
  IC50: 17.4 µM (active)

## O=[N+]([O-])c1ccc(CN2CCN(c3ccc(Cl)cc3)CC2)o1
[7]
  EC50: 0.758 µM (active)
cells
  IC50: < 0.1 µM (active)
[8]
  EC50: > 60 µM (not active)

## O=C(Nc1ccc2c(c1)OCO2)Nc1ccccc1F
[2]
  EC50: 1.77 µM (active)
[3]
  EC50: 3.42 µM (active)

## CCn1c(SCC(=O)N(C)c2c(N)n(Cc3ccccc3)c(=O)[nH]c2=O)nc2ccccc21
[2]
  EC50: > 112 µM (not active)
[3]
  EC50: > 112 µM (not active)

## CSc1nc(-c2ccco2)nn1C(=O)c1cccs1
[1]
  AC50: 28.3 µM (active)
Protein RecA
  EC50: 24.7 µM (active)

## CCOC(=O)c1cc2cc(OC)ccc2nc1C
[2]
  EC50: > 112 µM (not active)
[3]
  EC50: > 112 µM (not active)

## C=CCn1c(S)nnc1-c1cc(Cl)ccc1OC
[3]
  EC50: > 112 µM (not active)

## CCc1n[nH]c(SCC(=O)Nc2ccc(N(C)C)cc2)n1
Large T antigen
  IC50: 15.5 µM (active)

## O=C1NC(c2ccc(-c3ccccc3[N+](=O)[O-])o2)C(C(=O)c2ccc(Cl)cc2)C(O)(C(F)(F)F)N1 (stereo not drawn)
[1]
  AC50: 4.27 µM (active)
[9]
  AC50: 9.56 µM (active)

## COc1cc(Cn2nnc3ccccc32)ccc1O
Large T antigen
  IC50: 7.55 µM (active)

## O=C1NC(=O)C(=Cc2ccc(-c3ccc(Cl)cc3)o2)C(=O)N1
cells
  IC50: > 50 µM (active)
[10]
  AC50: 9.2 µM (active)

## CC(=O)Oc1c(C(=O)c2nnc(C)o2)c(=O)n(Cc2ccccc2)c2ccccc12
[10]
  AC50: 6.98 µM (active)

## Cc1n[nH]c2c1C(c1c(C)nn(C)c1C)C(C#N)=C(N)O2 (stereo not drawn)
[1]
  AC50: 4.2 µM (active)
Protein RecA
  EC50: 4.86 µM (active)

## CC(C)(C)NC(=O)CCN(/N=C/c1ccc([N+](=O)[O-])o1)C1=NS(=O)(=O)c2ccccc21
[10]
  AC50: 7.18 µM (active)

## Cc1ccc(S(=O)(=O)Nc2ccc3c(c2)CC(=O)N([C@@H](C)CO)C[C@H](C)[C@@H](CN(C)Cc2ccc(-c4ccccc4)cc2)O3)cc1
[11]
  AC50: 20.2 µM (active)

## COc1ccc(C(=O)NC(=O)Nc2cc(C)ccn2)cc1
[12]
  EC50: 0.533 µM (active)
[10]
  AC50: 4.96 µM (active)
[13]
  EC50: 1.67 µM (active)
[14]
  EC50: 0.367 µM (active)

## CCn1c(C)nc2cc(C(=O)N/N=C/c3ccc(OC)c(O)c3)ccc21
Large T antigen
  IC50: 4.76 µM (active)
[6]
  IC50: 80 µM (active)

## O=C(Oc1ccc(/C=N/O)cc1)c1ccccc1Cl
cells
  IC50: 22.6 µM (active)

## O=c1cc(C23CC4CC(CC(C4)C2)C3)[nH][nH]1
[1]
  AC50: 2.85 µM (active)
Protein RecA
  EC50: 2.52 µM (active)
